Experimental data as given in US20160271263A1 (Novo Nordisk A/S, priority 2010, published 2016).
Numbered stars: 1 amine (or outer) side, 2 acyl side, 3 side chain; on linkers, the order of the positions; unused ones are H or OH. Side chains are listed from the residue outwards. Peptide text beside a SMILES is read from it. * marks the point of attachment. C18 diacid = O=C(O)CCCCCCCCCCCCCCCCC(=O)*; γGlu = O=C(O)[C@H](CCC(=O)[*:2])N[*:1]; AEEA = NCCOCCOCC(=O)O

Each compound was assayed against glucagon receptor (Homo sapiens, UniProt P47871) (assay: cell-based).
Chain of glucagon receptor (P47871 26-477): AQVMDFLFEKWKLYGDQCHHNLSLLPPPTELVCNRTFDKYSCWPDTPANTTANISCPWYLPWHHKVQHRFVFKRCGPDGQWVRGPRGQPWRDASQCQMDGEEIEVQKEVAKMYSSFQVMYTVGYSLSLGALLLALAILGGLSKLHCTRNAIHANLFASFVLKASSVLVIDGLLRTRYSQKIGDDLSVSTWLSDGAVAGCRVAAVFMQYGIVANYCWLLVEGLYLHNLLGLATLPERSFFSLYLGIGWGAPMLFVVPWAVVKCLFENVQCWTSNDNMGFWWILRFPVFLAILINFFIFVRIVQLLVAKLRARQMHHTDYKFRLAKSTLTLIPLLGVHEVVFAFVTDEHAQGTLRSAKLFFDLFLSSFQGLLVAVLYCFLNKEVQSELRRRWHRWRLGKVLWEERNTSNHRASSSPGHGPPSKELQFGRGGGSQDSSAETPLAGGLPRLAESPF

EC50	Compound
0.081 nM	CC(C)C[C@H](NC(=O)[C@H](Cc1ccc(O)cc1)NC(=O)[C@H](CCCCN)NC(=O)[C@H](CO)NC(=O)[C@H](Cc1ccc(O)cc1)NC(=O)[C@H](CC(=O)O)NC(=O)[C@H](CO)NC(=O)[C@@H](NC(=O)[C@H](Cc1ccccc1)NC(=O)[C@@H](NC(=O)CNC(=O)[C@H](CCC(N)=O)NC(=O)[C@H](CO)NC(=O)[C@@H](N)Cc1c[nH]cn1)[C@@H](C)O)[C@@H](C)O)C(=O)N[C@@H](CC(=O)O)C(=O)N[C@@H](CCCCNC(=O)COCCOCCNC(=O)COCCOCCNC(=O)CC[C@H](NC(=O)CC[C@H](NC(=O)CC[C@H](NC(=O)CCCCCCCCCCCCCCCCC(=O)O)C(=O)O)C(=O)O)C(=O)O)C(=O)N[C@@H](CCCNC(=N)N)C(=O)N[C@@H](CCCNC(=N)N)C(=O)N[C@@H](C)C(=O)N[C@@H](CCC(N)=O)C(=O)N[C@@H](CC(=O)O)C(=O)N[C@@H](Cc1ccccc1)C(=O)N[C@H](C(=O)N[C@@H](CCC(N)=O)C(=O)N[C@@H](Cc1c[nH]c2ccccc12)C(=O)N[C@@H](CC(C)C)C(=O)N[C@@H](CC(C)C)C(=O)N[C@@H](CC(N)=O)C(=O)N[C@H](C(=O)O)[C@@H](C)O)C(C)C [Example 77, N^ε16-[2-[2-[2-[[2-[2-[2-[[(4S)-4-carboxy-4-[[(4S)-4-carboxy-4-[[(4S)-4-carboxy-4-(17-carboxyheptadecanoylamino)butanoyl]amino]butanoyl]amino]butanoyl]amino]ethoxy]ethoxy]acetyl]amino]ethoxy]ethoxy]acetyl]-[Lys^16,Leu^27]-Glucagon] (H-HSQGTFTSDYSKYLDK([AEEA-AEEA-γGlu-γGlu-γGlu-C18 diacid])RRAQDFVQWLLNT-OH; N-terminus and C-terminus assumed)
0.074 nM	CC(C)C[C@H](NC(=O)[C@H](Cc1ccc(O)cc1)NC(=O)[C@H](CCCCN)NC(=O)[C@H](CO)NC(=O)[C@H](Cc1ccc(O)cc1)NC(=O)[C@H](CC(=O)O)NC(=O)[C@H](CO)NC(=O)[C@@H](NC(=O)[C@H](Cc1ccccc1)NC(=O)[C@@H](NC(=O)CNC(=O)[C@H](CCC(N)=O)NC(=O)[C@H](CO)NC(=O)[C@@H](N)Cc1c[nH]cn1)[C@@H](C)O)[C@@H](C)O)C(=O)N[C@@H](CC(=O)O)C(=O)N[C@@H](CO)C(=O)N[C@@H](CCCNC(=N)N)C(=O)N[C@@H](CCCNC(=N)N)C(=O)N[C@@H](C)C(=O)N[C@@H](CCC(N)=O)C(=O)N[C@@H](CCC(=O)O)C(=O)N[C@@H](Cc1ccccc1)C(=O)N[C@H](C(=O)N[C@@H](CCCCNC(=O)COCCOCCNC(=O)COCCOCCNC(=O)CC[C@H](NC(=O)CCCCCCCCCCCCCCCCC(=O)O)C(=O)O)C(=O)N[C@@H](CCCNC(=N)N)C(=O)N[C@@H](CC(C)C)C(=O)N[C@@H](CC(C)C)C(=O)N[C@@H](CC(N)=O)C(=O)N[C@H](C(=O)O)[C@@H](C)O)C(C)C [Example 58, N^ε24-([2-[2-[2-[[2-[2-[2-[[(4S)-5-hydroxy-4-[(18-hydroxy-18-oxooctadecanoyl)amino]-5-oxopentanoyl]amino]ethoxy]ethoxy]acetyl]amino]ethoxy]ethoxy]acetyl]) [Glu^21,Lys^24,Arg^25,Leu^27] Glucagon]
0.053 nM	CC(C)C[C@H](NC(=O)[C@H](Cc1ccc(O)cc1)NC(=O)[C@H](CCCCN)NC(=O)[C@H](CO)NC(=O)[C@H](Cc1ccc(O)cc1)NC(=O)[C@H](CC(=O)O)NC(=O)[C@H](CO)NC(=O)[C@@H](NC(=O)[C@H](Cc1ccccc1)NC(=O)[C@@H](NC(=O)CNC(=O)[C@H](CCC(N)=O)NC(=O)[C@H](CO)NC(=O)[C@@H](N)Cc1c[nH]cn1)[C@@H](C)O)[C@@H](C)O)C(=O)N[C@@H](CC(=O)O)C(=O)N[C@@H](CO)C(=O)N[C@@H](CCCNC(=N)N)C(=O)N[C@@H](CCCNC(=N)N)C(=O)N[C@@H](C)C(=O)N[C@@H](CCC(N)=O)C(=O)N[C@@H](CCC(=O)O)C(=O)N[C@@H](Cc1ccccc1)C(=O)N[C@H](C(=O)N[C@@H](CCCCNC(=O)CC[C@H](NC(=O)CC[C@H](NC(=O)COCCOCCNC(=O)CC[C@H](NC(=O)CCCCCCCCCCCCCCCCC(=O)O)C(=O)O)C(=O)O)C(=O)O)C(=O)N[C@@H](Cc1c[nH]c2ccccc12)C(=O)N[C@@H](CC(C)C)C(=O)N[C@@H](CC(C)C)C(=O)N[C@@H](CO)C(=O)N[C@H](C(=O)O)[C@@H](C)O)C(C)C [Example 91, N^ε24-[(4S)-4-carboxy-4-[[(4S)-4-carboxy-4-[[2-[2-[2-[[(4S)-4-carboxy-4-(17-carboxyheptadecanoylamino)butanoyl]amino]ethoxy]ethoxy]acetyl]amino]butanoyl]amino]butanoyl]-[Glu21,Lys24,Leu27,Ser28]-Glucagon]
0.307 nM	CC(C)C[C@H](NC(=O)[C@H](Cc1ccc(O)cc1)NC(=O)[C@H](CCCCN)NC(=O)[C@H](CO)NC(=O)[C@H](Cc1ccc(O)cc1)NC(=O)[C@H](CC(=O)O)NC(=O)[C@H](CO)NC(=O)[C@@H](NC(=O)[C@H](Cc1ccccc1)NC(=O)[C@@H](NC(=O)CNC(=O)[C@H](CCC(N)=O)NC(=O)[C@H](CO)NC(=O)[C@@H](N)Cc1c[nH]cn1)[C@@H](C)O)[C@@H](C)O)C(=O)N[C@@H](CC(=O)O)C(=O)N[C@@H](CO)C(=O)N[C@@H](CCCNC(=N)N)C(=O)N[C@@H](CCCNC(=N)N)C(=O)N[C@@H](C)C(=O)N[C@@H](CCC(=O)O)C(=O)N[C@@H](CC(=O)O)C(=O)N[C@@H](Cc1ccccc1)C(=O)N[C@H](C(=O)N[C@@H](CCCCNC(=O)CC[C@H](NC(=O)CC[C@H](NC(=O)COCCOCCNC(=O)COCCOCCNC(=O)CC[C@H](NC(=O)CCCCCCCCCCCCCCCCC(=O)O)C(=O)O)C(=O)O)C(=O)O)C(=O)N[C@@H](Cc1c[nH]c2ccccc12)C(=O)N[C@@H](CC(C)C)C(=O)N[C@@H](CC(C)C)C(=O)N[C@@H](CO)C(=O)N[C@H](C(=O)O)[C@@H](C)O)C(C)C [Example 101, N^ε24-[(4S)-4-carboxy-4-[[(4S)-4-carboxy-4-[[2-[2-[2-[[2-[2-[2-[[(4S)-4-carboxy-4-(17-carboxyheptadecanoylamino)butanoyl]amino]ethoxy]ethoxy]acetyl]amino]ethoxy]ethoxy]acetyl]amino]butanoyl]amino]butanoyl]-[Glu^20,Lys^24,Leu^27,Ser^28]-Glucagon]
0.048 nM	CC(C)C[C@H](NC(=O)[C@H](Cc1ccc(O)cc1)NC(=O)[C@H](CCCCN)NC(=O)[C@H](CO)NC(=O)[C@H](Cc1ccc(O)cc1)NC(=O)[C@H](CC(=O)O)NC(=O)[C@H](CO)NC(=O)[C@@H](NC(=O)[C@H](Cc1ccccc1)NC(=O)[C@@H](NC(=O)CNC(=O)[C@H](CCC(N)=O)NC(=O)[C@H](CO)NC(=O)[C@@H](N)Cc1c[nH]cn1)[C@@H](C)O)[C@@H](C)O)C(=O)N[C@@H](CC(=O)O)C(=O)N[C@@H](CCC(=O)O)C(=O)N[C@@H](CCCCN)C(=O)N[C@@H](C)C(=O)N[C@@H](C)C(=O)N[C@@H](CCC(N)=O)C(=O)N[C@@H](CCC(=O)O)C(=O)N[C@@H](Cc1ccccc1)C(=O)N[C@H](C(=O)N[C@@H](CCCCNC(=O)COCCOCCNC(=O)COCCOCCNC(=O)CC[C@H](NC(=O)CCCCCCCCCCCCCCCCC(=O)O)C(=O)O)C(=O)N[C@@H](Cc1c[nH]c2ccccc12)C(=O)N[C@@H](CC(C)C)C(=O)N[C@@H](CC(C)C)C(=O)N[C@@H](CC(N)=O)C(=O)N[C@H](C(N)=O)[C@@H](C)O)C(C)C [Example 36, N^ε24-([2-[2-[2-[[2-[2-[2-[[(4S)-5-hydroxy-4-[(18-hydroxy-18-oxooctadecanoyl)amino]-5-oxopentanoyl]amino]ethoxy]ethoxy]acetyl]amino]ethoxy]ethoxy]acetyl])[Glu^16, Lys^17, Ala^18,Glu^21, Lys^24, Leu^27]Glucagon peptide amide] (H-HSQGTFTSDYSKYLDEKAAQEFVK([AEEA-AEEA-γGlu-C18 diacid])WLLNT-NH2; N-terminus assumed)
0.115 nM	CC(C)C[C@H](NC(=O)[C@H](Cc1ccc(O)cc1)NC(=O)[C@H](CCCCN)NC(=O)[C@H](CO)NC(=O)[C@H](Cc1ccc(O)cc1)NC(=O)[C@H](CC(=O)O)NC(=O)[C@H](CO)NC(=O)[C@@H](NC(=O)[C@H](Cc1ccccc1)NC(=O)[C@@H](NC(=O)CNC(=O)[C@H](CCC(N)=O)NC(=O)[C@H](CO)NC(=O)[C@@H](N)Cc1c[nH]cn1)[C@@H](C)O)[C@@H](C)O)C(=O)N[C@@H](CC(=O)O)C(=O)N[C@@H](CO)C(=O)N[C@@H](CCCNC(=N)N)C(=O)N[C@@H](CCCNC(=N)N)C(=O)N[C@@H](C)C(=O)N[C@@H](CCC(N)=O)C(=O)N[C@@H](CC(=O)O)C(=O)N[C@@H](Cc1ccccc1)C(=O)N[C@H](C(=O)N[C@@H](CCCCNC(=O)COCCOCCNC(=O)COCCOCCNC(=O)CC[C@H](NC(=O)CC[C@H](NC(=O)CC[C@H](NC(=O)CCCCCCCCCCCCCCCCC(=O)O)C(=O)O)C(=O)O)C(=O)O)C(=O)N[C@@H](Cc1c[nH]c2ccccc12)C(=O)N[C@@H](CC(C)C)C(=O)N[C@@H](CC(C)C)C(=O)N[C@@H](CO)C(=O)N[C@H](C(=O)O)[C@@H](C)O)C(C)C [Example 69, N^ε24-[2-[2-[2-[[2-[2-[2-[[(4S)-4-carboxy-4-[[(4S)-4-carboxy-4-[[(4S)-4-carboxy-4-(17-carboxyheptadecanoylamino)butanoyl]amino]butanoyl]amino]butanoyl]amino]ethoxy]ethoxy]acetyl]amino]ethoxy]ethoxy]acetyl]-[Lys^24,Leu^27,Ser^28]-Glucagon]

Compound	EC50
CC(C)C[C@H](NC(=O)[C@H](Cc1ccc(O)cc1)NC(=O)[C@H](CCCCN)NC(=O)[C@H](CO)NC(=O)[C@H](Cc1ccc(O)cc1)NC(=O)[C@H](CC(=O)O)NC(=O)[C@H](CO)NC(=O)[C@@H](NC(=O)[C@H](Cc1ccccc1)NC(=O)[C@@H](NC(=O)CNC(=O)[C@H](CCC(N)=O)NC(=O)[C@H](CO)NC(=O)[C@@H](N)Cc1c[nH]cn1)[C@@H](C)O)[C@@H](C)O)C(=O)N[C@@H](CC(=O)O)C(=O)N[C@@H](CO)C(=O)N[C@@H](CCCNC(=N)N)C(=O)N[C@@H](CCCNC(=N)N)C(=O)N[C@@H](C)C(=O)N[C@@H](CCC(N)=O)C(=O)N[C@@H](CC(=O)O)C(=O)N[C@@H](Cc1ccccc1)C(=O)N[C@H](C(=O)N[C@@H](CCCCNC(=O)COCCOCCNC(=O)COCCOCCNC(=O)CC[C@H](NC(=O)CCCCCCCCCCCCCCCCC(=O)O)C(=O)O)C(=O)N[C@@H](Cc1ccc(OP(=O)(O)O)cc1)C(=O)N[C@@H](CC(C)C)C(=O)N[C@@H](CC(C)C)C(=O)N[C@@H](CC(N)=O)C(=O)N[C@H](C(=O)O)[C@@H](C)O)C(C)C [Example 56, N^ε24-([2-[2-[2-[[2-[2-[2-[[(4S)-5-hydroxy-4-[(18-hydroxy-18-oxooctadecanoyl)amino]-5-oxopentanoyl]amino]ethoxy]ethoxy]acetyl]amino]ethoxy]ethoxy]acetyl]) [Lys^24, (p)Tyr^25,Leu^27] Glucagon]	0.171 nM
